# Read-outs that look alike come from different tables or passages of the source.
# How the values were obtained:
# [1] = biological target: T1, human galectin-1 (Gal-1, full length) (Homo sapiens, UniProt P09382); assay: Competitive fluorescence polarization assay, Gal-1; format: binding
# T1 construct: Gal-1 is a prototype galectin consisting of a single CRD and was used in full length; 6xHis tag with TEV protease site (N, cleaved yes); made in house; host or cells: BL21 Escherichia coli (pET-15b)
# T1 sequence (P09382 2-135): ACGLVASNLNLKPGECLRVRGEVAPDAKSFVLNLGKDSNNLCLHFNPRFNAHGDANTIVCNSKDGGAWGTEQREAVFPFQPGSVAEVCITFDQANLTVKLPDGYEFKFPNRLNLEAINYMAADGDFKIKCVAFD
# Experimental: (§1) Our investigation of the structure–activity relationship of N-aryl-N-lactosylamides started with an initial screening of substituted acetanilides (Table ). These compounds can be readily synthesized from a wide range of commercially available substituted anilines. Affinity was evaluated using a fluorescence polarization assay, which enables reliable determination of dissociation constants (K d) between small molecules and galectins. All inhibitors in this series were tested against the two most common human galectins: Gal-1 and Gal-3. Gal-1 is a prototype galectin consisting of a single CRD and was used in full length. In the case of Gal-3, which consists of the C-terminal CRD and N-terminal unfolded region, only the C-terminal domain was used (Gal-3C). Affinities were compared to methyl β-lactoside (β-LacOMe) as a baseline.
# (§2) Fluorescence polarization experiments for determining inhibitor affinities were performed using the same instrumentation and settings as described for the direct binding experiments. […] The galectin–probe mixture was subsequently added using a Certus Flex liquid handler (Fritz Gyger AG, Switzerland) to reach a final volume of 5 μL. Anisotropy was measured after 30–60 min incubation at 25 °C. Inhibitor dissociation constants (K d) were calculated using Wang’s exact cubic model for competitive binding implemented in the BindCurve package. Protein and probe concentrations used in these competitive experiments are provided in the Supporting Information.
# (§3) Competitive binding was modeled by Wang’s exact cubic model,3 which is written as […]
# (§4) r = rmin + (rmax − rmin) 3 (6) […]
# (§5) where r, rmin and rmax have the same meaning as in Equation 1. The coefficients a, b, and c are […]
# (§6) a = Kd∗ + Kd + [L∗]T + [L]T − [R]T (7) b = Kd∗([L]T − [R]T) + Kd([L∗]T − [R]T) + Kd∗ Kd (8) […]
# (§7) where Kd∗ is the dissociation constant of the probe, Kd is the dissociation constant of the […]
# (§8) the unlabeled ligand, and [R]T is the total concentration of the receptor. The angle θ is defined […]
# (§9) In the competitive binding experiments, the values of [L∗]T, [R]T and Kd∗ are known and [L]T is titrated. The values of minimal and maximal anisotropy rmin and rmax were fixed during fitting at the values of the minimal and maximal asymptotes obtained from the direct binding experiments. The value of Kd was calculated as the only unfixed parameter in the model.
# (§10) Experimental constants used for the competitive fluorescence polarization experiments are […]
# (§11) Table S2. Experimental constants used for competitive fluorescence polarization experiments. […]
# [2] = biological target: T2, human galectin-3C (Gal-3C, C-terminal CRD of galectin-3) (Homo sapiens, UniProt P17931); assay: Competitive fluorescence polarization assay, Gal-3C; format: binding
# T2 construct: only the C-terminal domain was used (Gal-3C); 6xHis tag with TEV protease site (N, cleaved yes); made in house; host or cells: BL21 Escherichia coli (pET-15b)
# T2 sequence (P17931 118-248 limits assumed): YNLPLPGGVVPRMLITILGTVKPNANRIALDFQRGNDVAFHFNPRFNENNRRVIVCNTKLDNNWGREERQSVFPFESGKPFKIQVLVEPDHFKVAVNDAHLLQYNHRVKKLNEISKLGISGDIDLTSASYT
# Experimental: as §1, §2, §3, §4, §5, §6, §7, §8, §9, §10, §11
# [3] = CSV supplement, unrounded mean, read-out: Gal1_IC50_mean_uM
# [4] = CSV supplement, unrounded mean, read-out: Gal1_Kd_mean_uM
# [5] = competitive fluorescence polarization, mean ± SD, read-out: Kd Gal-1
# [6] = four-parameter logistic model, mean ± SD, read-out: IC50 Gal-1
# [7] = CSV supplement, unrounded mean, read-out: Gal3C_IC50_mean_uM
# [8] = CSV supplement, unrounded mean, read-out: Gal3C_Kd_mean_uM
# [9] = competitive fluorescence polarization, mean ± SD, read-out: Kd Gal-3C
# [10] = four-parameter logistic model, mean ± SD, read-out: IC50 Gal-3C
SMILES,"IC50 [1, 3]","Kd [1, 4]","Kd [1, 5]","IC50 [1, 6]","IC50 [2, 7]","Kd [2, 8]","Kd [2, 9]","IC50 [2, 10]",decrease of affinity toward Gal-3C compared to 3r ([2]; compared to 3r),improvement in affinity toward Gal-3C compared to 3a ([2]; compared to unsubstituted phenyl derivative 3a),selectivity for Gal-3C over Gal-1 ([2]; ratio Kd (Gal-1)/Kd (Gal-3C)),improvement in affinity toward Gal-1 compared to β-LacOMe ([1]; compared to β-LacOMe),improvement in affinity toward Gal-3C compared to β-LacOMe ([2]; compared to β-LacOMe),improvement in affinity toward Gal-1 compared to 3a ([1]; compared to 3a)
"CC(=O)N(c1ccc2c(c1)OCO2)[C@@H]1O[C@H](CO)[C@@H](O[C@@H]2O[C@H](CO)[C@H](O)[C@H](O)[C@H]2O)[C@H](O)[C@H]1O [Compound 3p, N-[4-O-(β-D-Galactopyranosyl)-β-D-glucopyranosyl]-N-(1,3-benzodioxol-5-yl)acetamide]",981 µM,545 µM,540 ± 30 µM,980 ± 10 µM,346 µM,115 µM,110 ± 20 µM,350 ± 10 µM,,,,,,
"CCOC(=O)c1ccccc1N(C(C)=O)[C@@H]1O[C@H](CO)[C@@H](O[C@@H]2O[C@H](CO)[C@H](O)[C@H](O)[C@H]2O)[C@H](O)[C@H]1O [Compound 3q, N-[4-O-(β-D-Galactopyranosyl)-β-D-glucopyranosyl]-N-[2-(ethylcarboxy)phenyl]acetamide]",773 µM,411 µM,410 ± 20 µM,770 ± 70 µM,242 µM,80.2 µM,80 ± 9 µM,240 ± 5 µM,,,,,,
"CO[C@@H]1O[C@H](CO)[C@@H](O[C@@H]2O[C@H](CO)[C@H](O)[C@H](O)[C@H]2O)[C@H](O)[C@H]1O [β-LacOMe, methyl β-lactoside, reference compound]",1640 µM,770 µM,770 ± 200 µM,1600 ± 70 µM,756 µM,234 µM,230 ± 20 µM,760 ± 90 µM,,,,,,
"O=C(O)c1cccc(N(C(=O)Cc2ccccc2)[C@@H]2O[C@H](CO)[C@@H](O[C@@H]3O[C@H](CO)[C@H](O)[C@H](O)[C@H]3O)[C@H](O)[C@H]2O)c1 [Compound 3u, N-[4-O-(β-D-Galactopyranosyl)-β-D-glucopyranosyl]-N-(3-carboxyphenyl)-2-phenylacetamide]",2150 µM,1240 µM,1200 ± 10 µM,2100 ± 800 µM,133 µM,53.6 µM,54 ± 6 µM,130 ± 20 µM,,,,,,
"CC(C)C(=O)N(c1cccc(C(=O)O)c1)[C@@H]1O[C@H](CO)[C@@H](O[C@@H]2O[C@H](CO)[C@H](O)[C@H](O)[C@H]2O)[C@H](O)[C@H]1O [Compound 3s, N-[4-O-(β-D-Galactopyranosyl)-β-D-glucopyranosyl]-N-(3-carboxyphenyl)-2-methylpropanamide]",1800 µM,1000 µM,1000 ± 300 µM,1800 ± 200 µM,113 µM,39.5 µM,39 ± 4 µM,110 ± 0.2 µM,,,,,,
"CC(=O)N(c1cccc(-c2nnn[nH]2)c1)[C@@H]1O[C@H](CO)[C@@H](O[C@@H]2O[C@H](CO)[C@H](O)[C@H](O)[C@H]2O)[C@H](O)[C@H]1O [Compound 3y, N-[4-O-(β-D-Galactopyranosyl)-β-D-glucopyranosyl]-N-[3-(1H-tetrazol-5-yl)phenyl]acetamide]",1260 µM,812 µM,810 ± 200 µM,1300 ± 100 µM,123 µM,48.8 µM,49 ± 20 µM,120 ± 9 µM,,,,,,
"CC(=O)N(c1cc(Br)cc(C(=O)O)c1)[C@@H]1O[C@H](CO)[C@@H](O[C@@H]2O[C@H](CO)[C@H](O)[C@H](O)[C@H]2O)[C@H](O)[C@H]1O [Compound 3ac, N-[4-O-(β-D-Galactopyranosyl)-β-D-glucopyranosyl]-N-(3-bromo-5-carboxyphenyl)acetamide]",967 µM,625 µM,630 ± 100 µM,970 ± 30 µM,160 µM,60.2 µM,60 ± 10 µM,160 ± 20 µM,,,,,,
"CC(=O)N(c1ccc(F)cc1)[C@@H]1O[C@H](CO)[C@@H](O[C@@H]2O[C@H](CO)[C@H](O)[C@H](O)[C@H]2O)[C@H](O)[C@H]1O [Compound 3e, N-[4-O-(β-D-Galactopyranosyl)-β-D-glucopyranosyl]-N-(4-fluorophenyl)acetamide]",595 µM,322 µM,320 ± 100 µM,590 ± 70 µM,275 µM,87.1 µM,87 ± 10 µM,270 ± 10 µM,,,,,,
"COc1cc(N(C(C)=O)[C@@H]2O[C@H](CO)[C@@H](O[C@@H]3O[C@H](CO)[C@H](O)[C@H](O)[C@H]3O)[C@H](O)[C@H]2O)cc(OC)c1OC [Compound 3o, N-[4-O-(β-D-Galactopyranosyl)-β-D-glucopyranosyl]-N-(3,4,5-trimethoxyphenyl)acetamide]",461 µM,243 µM,240 ± 40 µM,460 ± 80 µM,238 µM,76.2 µM,76 ± 20 µM,240 ± 40 µM,,,,,,2 fold

# The next lines start with the values.
"IC50 [1, 3]","Kd [1, 4]","Kd [1, 5]","IC50 [1, 6]","IC50 [2, 7]","Kd [2, 8]","Kd [2, 9]","IC50 [2, 10]",decrease of affinity toward Gal-3C compared to 3r ([2]; compared to 3r),improvement in affinity toward Gal-3C compared to 3a ([2]; compared to unsubstituted phenyl derivative 3a),selectivity for Gal-3C over Gal-1 ([2]; ratio Kd (Gal-1)/Kd (Gal-3C)),improvement in affinity toward Gal-1 compared to β-LacOMe ([1]; compared to β-LacOMe),improvement in affinity toward Gal-3C compared to β-LacOMe ([2]; compared to β-LacOMe),improvement in affinity toward Gal-1 compared to 3a ([1]; compared to 3a),SMILES
659 µM,376 µM,380 ± 60 µM,660 ± 8 µM,346 µM,112 µM,110 ± 20 µM,350 ± 40 µM,,,,,,,"CC(=O)N(c1ccc(Cl)c(Cl)c1)[C@@H]1O[C@H](CO)[C@@H](O[C@@H]2O[C@H](CO)[C@H](O)[C@H](O)[C@H]2O)[C@H](O)[C@H]1O [Compound 3k, N-[4-O-(β-D-Galactopyranosyl)-β-D-glucopyranosyl]-N-(3,4-dichlorophenyl)acetamide]"
842 µM,542 µM,540 ± 60 µM,840 ± 90 µM,273 µM,106 µM,110 ± 30 µM,270 ± 0.9 µM,2 fold,,,,,,"CC(=O)N(c1cccc(CO)c1)[C@@H]1O[C@H](CO)[C@@H](O[C@@H]2O[C@H](CO)[C@H](O)[C@H](O)[C@H]2O)[C@H](O)[C@H]1O [Compound 3x, N-[4-O-(β-D-Galactopyranosyl)-β-D-glucopyranosyl]-N-[3-(hydroxymethyl)phenyl]acetamide]"
1400 µM,858 µM,860 ± 30 µM,1400 ± 100 µM,127 µM,40.9 µM,41 ± 10 µM,130 ± 20 µM,,2 fold,20 fold,,,,"CC(=O)N(c1cccc(C(=O)O)c1)[C@@H]1O[C@H](CO)[C@@H](O[C@@H]2O[C@H](CO)[C@H](O)[C@H](O)[C@H]2O)[C@H](O)[C@H]1O [Compound 3r, N-[4-O-(β-D-Galactopyranosyl)-β-D-glucopyranosyl]-N-(3-carboxyphenyl)acetamide]"
908 µM,586 µM,590 ± 80 µM,910 ± 20 µM,287 µM,106 µM,110 ± 30 µM,290 ± 1 µM,,,,approximately 2 fold,approximately 2 fold,,"CC(=O)N(c1ccccc1)[C@@H]1O[C@H](CO)[C@@H](O[C@@H]2O[C@H](CO)[C@H](O)[C@H](O)[C@H]2O)[C@H](O)[C@H]1O [Compound 3a, N-[4-O-(β-D-Galactopyranosyl)-β-D-glucopyranosyl]-N-phenylacetamide]"
666 µM,445 µM,440 ± 100 µM,670 ± 90 µM,220 µM,88.1 µM,88 ± 20 µM,220 ± 6 µM,,,,,,,"CNC(=O)c1cccc(N(C(C)=O)[C@@H]2O[C@H](CO)[C@@H](O[C@@H]3O[C@H](CO)[C@H](O)[C@H](O)[C@H]3O)[C@H](O)[C@H]2O)c1 [Compound 3w, N-[4-O-(β-D-Galactopyranosyl)-β-D-glucopyranosyl]-N-[3-(methylcarbamoyl)phenyl]acetamide]"
919 µM,481 µM,480 ± 100 µM,920 ± 90 µM,404 µM,133 µM,130 ± 20 µM,400 ± 50 µM,,,,,,,"CC(=O)N(c1ccc(C)cc1)[C@@H]1O[C@H](CO)[C@@H](O[C@@H]2O[C@H](CO)[C@H](O)[C@H](O)[C@H]2O)[C@H](O)[C@H]1O [Compound 3b, N-[4-O-(β-D-Galactopyranosyl)-β-D-glucopyranosyl]-N-(4-methylphenyl)acetamide]"

# From PMC12670426 (Journal of Medicinal Chemistry, 2025)
